Earlier results as cited in patent US20090093506A1, “Copper antagonist compositions” (priority 2007, published 2009).

What was measured:
[1] = not given; remark: listed apart in the source
[2] = solution of the free base itself

CC(=O)[O-].CC(=O)[O-].[Zn+2] [Zinc acetate]
long-term or major side effects (patients with Wilson's disease): has not shown any long-term or major side effects

CC(C)(S)[C@@H](N)C(=O)O [Penicillamine, 3-mercapto-D-valine]
solubility in acetone ([1]; acetone): insoluble
solubility in alcohol ([1]; alcohol): slightly soluble
solubility in benzene ([1]; benzene): insoluble
solubility in carbon tetrachloride ([1]; carbon tetrachloride): insoluble
solubility in ether ([1]; ether): insoluble
solubility in water ([1]; water): freely soluble

NCCNCCNCCN [trientine, triethylenetetramine]
pH of a solution [2]: 14

COCc1c(C(C)C)nc(C(C)C)c(/C=C/[C@@H](O)C[C@@H](O)CC(=O)O)c1-c1ccc(F)cc1 [cerivastatin]
rhabdomyolysis (patients receiving the drug, withdrawn from the U.S. market August 2001): seen to occur more often
